In patent publication US20120149081A1, “METHOD FOR FERMENTATION CULTURE IN MEDIUM CONTAINING XYLOSE” (priority 2010, published 2012):

Columns and labels:
[1] = system: recombinant yeast W801M strain; assay: Simultaneous (glucose/xylose) fermentation test in medium supplemented with amino acid, primary screening; assay type: cell-based, Saccharomyces cerevisiae; settings: hour 8 after start, amino acid amount per Table 3; for ΔXylose 0-8 h (decreased amount of xylose): YNGXAc+U medium (10 g/l xylose, 10 g/l glucose), 30° C., initial OD600=10, n=2; for Control ratio % (ΔXylose 0-8 h relative to no-addition control): YNGXAc+U medium, n=2
Protocol: (§1) The W801M strain prepared as described above was cultured in 5 ml of an YNG+U (6.7 g/l Yeast Nitrogen Base without amino acids, 20 g/l glucose, 20 mg/l uracil) liquid medium prepared in a test tube at 30° C. and 80 rpm for 24 hours, thereby preparing a pre-pre-culture solution. Next, the pre-pre-culture solution (5 ml) was added to new YNX+U liquid medium (250 ml) prepared in a baffled Erlenmeyer flask, followed by pre-culture at 30° C. and 100 rpm. After 48 hours of culture, the culture solution was subjected to 5 minutes of centrifugation at 1000×g at room temperature, thereby removing the supernatant.
(§2) To prevent the introduction of the substrate into the pre-culture solution, the thus collected microbial pellet was suspended in sterile water and then subjected to centrifugation at 1000×g for 5 minutes, thereby collecting microorganisms. Washing was performed twice. After washing, microorganisms were suspended in sterile water, so that a microbial solution was prepared. A sodium acetate buffer was added to the fermentation medium so as to suppress a pH decrease in the medium associated with fermentation. The microbial solution was added to an YNGXAc+U medium (6.7 g/l Yeast Nitrogen Base without amino acids, 10 g/l D-Xylose, 10 g/l Glucose, 25 mM sodium acetate, 20 mg/l uracil, pH 5.0) so that the initial microbial concentration was OD600=10. One type of amino acid was added to the YNGXAc+U medium to result in a predetermined concentration, and then the medium was used. Amino acid was dissolved in water to a concentration 10 times greater than the final concentration. Then the solution was adjusted to pH 5.0, diluted, and then used. The fermentation test was conducted as follows. Five (5) ml of the culture solution was added to a 15-ml plastic tube with a screw cap, the tube was sealed with the cap, and then the tube was shaken at 30° C. (100 rpm). Sampling from the culture solution was performed over time and thus substrates (xylose and glucose) and the product (ethanol) were analyzed via liquid chromatography. Liquid chromatography was performed using a Shim-pack SPR-Pb column (Shimadzu Corporation) at 80° C. An RID-10A refractive index detector (Shimadzu Corporation) was used. Water was used for a mobile phase and sent at a flow rate of 0.8 ml/min.
A fermentation test was conducted (n=2) using as a control an YNGXAc+U medium to which nothing had been added, an YNGXAc+U medium supplemented with casamino acid (CAA, 20 g/L) (that is, an amino acid mixture obtained via hydrolysis of casein) and YNGXAc+U medium supplemented with 18 types of amino acids considered to be contained in casamino acid (20 g/L) or 2 types of amino acid (glutamine and asparagine) (5 g/L) considered not to be contained in casamino acid. The results of the measurement of the decreased amounts of xylose at hour 8 after the start of the fermentation test are shown in Table 3.

[2] = system: recombinant yeast W801M strain; assay: Simultaneous (glucose/xylose) fermentation test in medium supplemented with amino acid, secondary test; assay type: cell-based, Saccharomyces cerevisiae; settings: n=4
Protocol: as §1, §2
In addition, 8 hours later, glucose had been completely consumed and thus was not detected in any samples.
Also, 2 hours later, glucose remained in all samples.
Also, 22 hours later, both glucose and xylose had been completely consumed and thus was not detected. It was understood from the results that the microbial concentrations had increased from the initial microbial concentration of OD600=10 to around OD600=15 at hour 22. However, the microbial concentrations at hour 22 when the amino acids were added were equivalent to or lower than that of the control.

## CC[C@H](C)[C@H](N)C(=O)O [Ile]
[1]
  ΔXylose 0-8 h (decreased amount of xylose): 2.09 g/L
  Control ratio % (ΔXylose 0-8 h relative to no-addition control): 79%

## CC(C)C[C@H](N)C(=O)O [Leu, leucine]
[1]
  ΔXylose 0-8 h (decreased amount of xylose): 1.12 g/L
  Control ratio % (ΔXylose 0-8 h relative to no-addition control): 42%

## N[C@@H](Cc1c[nH]c2ccccc12)C(=O)O [Trp]
[1]
  ΔXylose 0-8 h (decreased amount of xylose): 3.07 g/L
  Control ratio % (ΔXylose 0-8 h relative to no-addition control): 115%

## NCCCC[C@H](N)C(=O)O [Lys]
[1]
  ΔXylose 0-8 h (decreased amount of xylose): 3.08 g/L
  Control ratio % (ΔXylose 0-8 h relative to no-addition control): 116%

## O=C(O)[C@@H]1CCCN1 [Pro]
[1]
  ΔXylose 0-8 h (decreased amount of xylose): 2.97 g/L
  Control ratio % (ΔXylose 0-8 h relative to no-addition control): 112%

## NC(=O)C[C@H](N)C(=O)O [Asn, asparagine]
[2]; amino acid added at 0.3 g/L
  xylose consumption rate compared with the control (decreased amount of xylose at hour 8, FIG. 7): Significant effects of improvement
[2]; amino acid added at 1 g/L
  xylose consumption rate compared with the control (decreased amount of xylose at hour 8, FIG. 7): Significant effects of improvement
[1]
  ΔXylose 0-8 h (decreased amount of xylose): 3.60 g/L
  Control ratio % (ΔXylose 0-8 h relative to no-addition control): 135%

## CSCC[C@H](N)C(=O)O [Met]
[1]
  ΔXylose 0-8 h (decreased amount of xylose): 2.67 g/L
  Control ratio % (ΔXylose 0-8 h relative to no-addition control): 100%

## N[C@@H](Cc1ccc(O)cc1)C(=O)O [Tyr, tyrosine]
[2]; amino acid added at 1 g/L
  xylose consumption rate compared with the control (decreased amount of xylose at hour 8, FIG. 7): Significant effects of improvement
[1]
  ΔXylose 0-8 h (decreased amount of xylose): 3.62 g/L
  Control ratio % (ΔXylose 0-8 h relative to no-addition control): 136%

## N[C@@H](CCC(=O)O)C(=O)O [Glu, glutamic acid]
[1]
  ΔXylose 0-8 h (decreased amount of xylose): 2.25 g/L
  Control ratio % (ΔXylose 0-8 h relative to no-addition control): 85%

## N[C@@H](Cc1c[nH]cn1)C(=O)O [His, histidine]
[2]; amino acid added at 0.3 g/L
  xylose consumption rate compared with the control (decreased amount of xylose at hour 8, FIG. 7): Significant effects of improvement
[1]
  ΔXylose 0-8 h (decreased amount of xylose): 3.26 g/L
  Control ratio % (ΔXylose 0-8 h relative to no-addition control): 122%

## N[C@@H](CS)C(=O)O [Cys]
[1]
  ΔXylose 0-8 h (decreased amount of xylose): 2.81 g/L
  Control ratio % (ΔXylose 0-8 h relative to no-addition control): 106%

## N=C(N)NCCC[C@H](N)C(=O)O [Arg, arginine]
[1]
  ΔXylose 0-8 h (decreased amount of xylose): 2.91 g/L
  Control ratio % (ΔXylose 0-8 h relative to no-addition control): 109%

## C[C@H](N)C(=O)O [Ala, alanine]
[1]
  ΔXylose 0-8 h (decreased amount of xylose): 2.95 g/L
  Control ratio % (ΔXylose 0-8 h relative to no-addition control): 111%

## NCC(=O)O [Gly]
[1]
  ΔXylose 0-8 h (decreased amount of xylose): 3.03 g/L
  Control ratio % (ΔXylose 0-8 h relative to no-addition control): 114%

## N[C@@H](CC(=O)O)C(=O)O [Asp, aspartic acid]
[1]
  ΔXylose 0-8 h (decreased amount of xylose): 2.46 g/L
  Control ratio % (ΔXylose 0-8 h relative to no-addition control): 92%

## NC(=O)CC[C@H](N)C(=O)O [Gln, glutamine]
[1]
  ΔXylose 0-8 h (decreased amount of xylose): 3.05 g/L
  Control ratio % (ΔXylose 0-8 h relative to no-addition control): 115%

## C[C@@H](O)[C@H](N)C(=O)O [Thr, threonine]
[2]; amino acid added at 0.3 g/L
  xylose consumption rate compared with the control (decreased amount of xylose at hour 8, FIG. 7): Significant effects of improvement
[2]; amino acid added at 1 g/L
  xylose consumption rate compared with the control (decreased amount of xylose at hour 8, FIG. 7): Significant effects of improvement
[1]
  ΔXylose 0-8 h (decreased amount of xylose): 3.29 g/L
  Control ratio % (ΔXylose 0-8 h relative to no-addition control): 124%

## CC(C)[C@H](N)C(=O)O [Val, valine]
[1]
  ΔXylose 0-8 h (decreased amount of xylose): 2.67 g/L
  Control ratio % (ΔXylose 0-8 h relative to no-addition control): 100%

## N[C@@H](CO)C(=O)O [Ser, serine]
[2]; amino acid added at 0.3 g/L
  xylose consumption rate compared with the control (decreased amount of xylose at hour 8, FIG. 7): Significant effects of improvement
[2]; amino acid added at 1 g/L
  xylose consumption rate compared with the control (decreased amount of xylose at hour 8, FIG. 7): Significant effects of improvement
[1]
  ΔXylose 0-8 h (decreased amount of xylose): 3.42 g/L
  Control ratio % (ΔXylose 0-8 h relative to no-addition control): 128%

## N[C@@H](Cc1ccccc1)C(=O)O [Phe]
[1]
  ΔXylose 0-8 h (decreased amount of xylose): 2.79 g/L
  Control ratio % (ΔXylose 0-8 h relative to no-addition control): 105%
